Data from PubChem BioAssay (NCI).
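Each compound was tested at five concentrations against cells in 96-well plates for 48 hours. The concentration for full growth arrest is given as TGI.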

Assays:
Test in all cases: DTP human tumour cell line panel, 48 h
RXF 393 renal = system: RXF 393 renal
SK-MEL-28 melanoma = system: SK-MEL-28 melanoma
NCI-H23 lung = system: NCI-H23 lung
SK-MEL-2 melanoma = system: SK-MEL-2 melanoma
NCI-H226 lung = system: NCI-H226 lung
M14 melanoma = system: M14 melanoma
CCRF-CEM leukemia = system: CCRF-CEM leukemia
OVCAR-3 ovarian = system: OVCAR-3 ovarian
786-0 renal = system: 786-0 renal
PC-3 prostate = system: PC-3 prostate
ACHN renal = system: ACHN renal
A498 renal = system: A498 renal
T-47D breast = system: T-47D breast

SMILES | TGI (RXF 393 renal) [µM] | TGI (SK-MEL-28 melanoma) [µM] | TGI (NCI-H23 lung) [µM] | TGI (SK-MEL-2 melanoma) [µM] | TGI (NCI-H226 lung) [µM] | TGI (M14 melanoma) [µM] | TGI (CCRF-CEM leukemia) [µM] | TGI (OVCAR-3 ovarian) [µM] | TGI (786-0 renal) [µM] | TGI (PC-3 prostate) [µM] | TGI (ACHN renal) [µM] | TGI (A498 renal) [µM] | TGI (T-47D breast) [µM]
CS(=O)(=O)c1nc(-c2cc3c(c(S(C)(=O)=O)n2)CCC3)cc2c1CCCCC2 | 39.3 | > 100 | > 100 | 63.1 | > 100 | > 100 | > 100 | > 100 | > 100 | > 100 | > 100 |  | 
O=C1NC2ON=C(c3ccccc3)C2C2ON=C(c3ccccc3)N12 (configuration not stated) | > 100 |  | > 100 |  | > 100 | > 100 |  | > 100 | > 100 | > 100 | > 100 |  | 
C/C(CC(=O)Nc1ccc([N+](=O)[O-])cc1)=N\NC(N)=O | > 100 | > 100 | > 100 | > 100 | > 100 | > 100 | > 71.4 | > 100 | > 100 |  | > 100 | > 100 | 
CCc1c2c([nH]c(=S)c1C#N)CCC2 | > 100 | > 100 | > 100 | > 100 | > 100 | > 100 | > 100 | > 100 | > 100 | > 100 | > 100 | > 100 | 
NC(=O)N/N=C(\CC1OC(=O)c2ccccc21)c1ccco1 (configuration not stated) | > 100 | > 100 | > 100 | > 100 | > 100 | > 100 | > 100 | > 100 | > 100 |  | > 100 | > 100 | 
CC(=O)OC1COC(n2c(O)c(N=NC(N)=S)c3cc(Br)ccc32)C(OC(C)=O)C1OC(C)=O (configuration not stated) | > 100 | > 100 | > 100 | > 100 | > 100 | > 100 | > 100 | > 100 | > 100 |  | > 100 |  | 
CCOC(=O)NC(=O)c1cn(CCOC(=O)CCCCCCCCC(=O)OCCn2cc(C(=O)NC(=O)OCC)c(=O)[nH]c2=O)c(=O)[nH]c1=O | > 100 | > 100 | 56.7 | > 100 | > 100 | > 100 | > 100 | > 100 | > 100 |  | > 100 | > 100 | 
O=c1[nH]c2cc(Cl)ccc2nc1/C(=N\O)C(O)c1cccc([N+](=O)[O-])c1 (configuration not stated) | > 100 | > 100 | > 100 |  | > 100 | > 100 | > 100 | > 100 | > 100 |  | > 100 |  | 
CCCCNc1nc(C#N)c(N)s1 |  | > 100 | > 100 | > 100 | > 100 | > 100 |  | > 100 | > 100 |  | > 100 |  | 
CNS(=O)(=O)NN(C)S(=O)(=O)c1ccccc1 | > 100 |  | > 100 | > 100 | > 100 | > 100 | > 100 |  | > 100 |  | > 100 | > 100 | 
CC(=O)OCC1=C(CCC#N)N2C(=O)C(NC(=O)Cc3cccs3)C2S(=O)C1 (configuration not stated) | > 100 | > 100 | > 100 | > 100 | > 100 | > 100 | > 100 | > 100 | > 100 |  | > 100 | > 100 | 
NC1=C(NC(=O)Cc2ccc(F)cc2)C(=O)c2ccccc2C1=O | 57 | > 100 | 27.9 | > 100 | > 100 | > 100 | > 100 | > 100 | > 100 |  | > 100 |  | 
C[N+](C)(C)CC(=O)N/N=C/c1oc(-c2c(O)ccc3ccccc23)c(-c2c(O)ccc3ccccc23)c1[N+](=O)[O-] | 26.8 | 49.2 | 37.2 | 33.4 | 36.3 | 37.2 | 76.7 | 44.2 | 44.3 |  | 32.5 | 31.6 | 
COc1ccc2c3c1O[C@]1(C)C34CCN(C)C(C2)C42C=C[C@@]1(OC)c1c(O)ccc(O)c12 | > 100 | > 100 | > 100 | > 100 |  |  | > 100 | > 100 | > 100 |  | > 100 | > 100 | 
COc1cc(O)c2c(=O)cc(-c3ccc(O)cc3O)oc2c1CC=C(C)C | 19.6 | > 100 | 32.5 | 39.1 | 38 | 30.2 | 63 |  | > 100 | 27.1 | 30.4 | 66.4 | 
O=C(CSc1nnc(-c2ccc(N=Cc3ccc(Cl)cc3)cc2)o1)Nc1ccccc1[N+](=O)[O-] | > 100 | > 100 | > 100 | > 100 | > 100 | > 100 | > 100 |  | > 100 |  | > 100 |  | 

SMILES | TGI (RXF 393 renal) [µM] | TGI (SK-MEL-28 melanoma) [µM] | TGI (NCI-H23 lung) [µM] | TGI (SK-MEL-2 melanoma) [µM] | TGI (NCI-H226 lung) [µM] | TGI (M14 melanoma) [µM] | TGI (CCRF-CEM leukemia) [µM] | TGI (OVCAR-3 ovarian) [µM] | TGI (786-0 renal) [µM] | TGI (PC-3 prostate) [µM] | TGI (ACHN renal) [µM] | TGI (A498 renal) [µM] | TGI (T-47D breast) [µM]
O=C1/C(=C/c2cccc(F)c2)CCCc2ccccc21 |  | 30.2 | 42.6 | 29.8 | 27.7 | 26.8 | 34 | 28.6 | 30.9 | 29.1 | 33.1 |  | 
O=C1/C(=C/c2cccc(Br)c2)CCc2ccccc21 |  | 33.8 | 32.6 | 25.8 | 31.1 | 29.4 | 13.4 | 28.6 | 29.8 | 27.7 | 27.7 |  | 
Cn1cc2ccccc2c1-c1nc(F)nc(F)n1 | > 100 | > 100 | > 100 | > 100 | > 100 | > 100 | > 100 | > 100 | > 100 |  | > 100 | > 100 | 
C=Cc1ccc(C)[n+](C[Si](C)(C)O[Si](C)(C)C)c1 |  | > 100 | > 100 | > 100 | > 100 | > 100 | > 100 | > 100 | > 100 |  | > 100 |  | 
COC(=O)N/N=C(\Cc1ccccc1)CN(C)C | > 100 | > 100 | > 100 | > 100 |  | > 100 | > 100 | > 100 | > 100 |  | > 100 | > 100 | 
CN(C)Nc1cc(=O)[nH]c(=O)[nH]1 | > 100 | > 100 |  |  | > 100 | > 100 | > 100 | > 100 | > 100 | > 100 | > 100 | > 100 | 
COC(=O)C(=O)C(C(=O)C(=O)Nc1ccc(F)cc1)c1nc2ccc([N+](=O)[O-])cc2[nH]c1=O (configuration not stated) | > 100 | > 100 | > 100 |  | > 100 | > 100 | > 100 | > 100 | > 100 |  |  | > 100 | 
Cc1csc2c(=O)n(C3OC(CO)C(O)C3O)c(=O)[nH]c12 (configuration not stated) | > 100 | > 100 | > 100 |  | > 100 | > 100 | > 100 | > 100 | > 100 | > 100 | > 100 | > 100 | 
C/C(=N\NS(=O)(=O)c1ccc(C)cc1)C(CN1CCCCC1)C(c1ccccc1)c1c(O)c2ccccc2oc1=O (configuration not stated) | > 100 |  | > 100 | > 100 | > 100 | > 100 | > 100 | > 100 | > 100 |  | > 100 | > 100 | 
CCOP(=O)(OCC)/C(C#N)=C/c1ncc[nH]1 | > 100 | > 100 | > 100 | > 100 | > 100 | > 100 | > 100 | > 100 | > 100 | > 100 | > 100 | > 100 | 
CCCCOC(=O)C1C2CCC(O2)C1C(=O)OCCCC (configuration not stated) | > 86.8 | > 100 | > 100 | > 100 | > 100 | > 82.1 | > 100 | > 100 | > 60.9 |  | > 100 | > 100 | 
O=C(CN1CCCCC1)Nc1ccc2sc3ccccc3c(=O)c2n1 |  | 35.2 | 38.8 | 41 |  | 41.4 | > 100 | > 100 | 37.2 | 50.1 | 33.4 |  | > 100
COc1cc2c(oc(=O)c3c4oc([Si](C)(C)C)cc4cc(OC)c23)c2cccc(OCc3ccccc3)c12 | > 48.2 | > 85.9 | 35.6 | > 100 | > 94.4 | 61.3 | > 100 | > 77.9 | 34.8 |  | > 100 | > 100 | 
c1ccc2c(c1)cc(C1NCCc3[nH]cnc31)c1ccccc12 (configuration not stated) | 85.6 | > 65.5 | > 100 | 36.5 | > 68.1 | 36.7 | > 67.9 | > 100 | > 60.8 |  | > 61.9 | 50 | 
C[C@]12CCC(=O)C=C1CC[C@@H]1[C@@H]2CC[C@]2(C)C(=O)NC(=O)C[C@@H]12 | > 100 | > 100 | > 100 | > 100 | > 100 | > 100 | > 100 | > 100 | > 100 |  | > 100 | > 100 | 
